Test results reported in US11174242B2, “Heteroaryl compounds and their use” (Minoryx Therapeutics S.L., priority 2016, dated 2021).
Residue numbers refer to the chain shown, from its start.

What was measured:
[1] = target: T1, β-glucocerebrosidase, p.L444P mutation (GM08760A fibroblasts) (Homo sapiens, UniProt P04062, L483P); assay: Enhancement of β-glucocerebrosidase activity measured in Gaucher disease fibroblasts (L444P); assay type: cell-based; conditions: increase in enzyme activity vs non-treated cells; GBA fibroblasts bearing L444P; concentrations between 6 and 50 μM; 4 days incubation
T1 construct: host or cells: human Gaucher patient fibroblasts GM08760A, homozygous L444P
T1 sequence (P04062 40-536 L483P): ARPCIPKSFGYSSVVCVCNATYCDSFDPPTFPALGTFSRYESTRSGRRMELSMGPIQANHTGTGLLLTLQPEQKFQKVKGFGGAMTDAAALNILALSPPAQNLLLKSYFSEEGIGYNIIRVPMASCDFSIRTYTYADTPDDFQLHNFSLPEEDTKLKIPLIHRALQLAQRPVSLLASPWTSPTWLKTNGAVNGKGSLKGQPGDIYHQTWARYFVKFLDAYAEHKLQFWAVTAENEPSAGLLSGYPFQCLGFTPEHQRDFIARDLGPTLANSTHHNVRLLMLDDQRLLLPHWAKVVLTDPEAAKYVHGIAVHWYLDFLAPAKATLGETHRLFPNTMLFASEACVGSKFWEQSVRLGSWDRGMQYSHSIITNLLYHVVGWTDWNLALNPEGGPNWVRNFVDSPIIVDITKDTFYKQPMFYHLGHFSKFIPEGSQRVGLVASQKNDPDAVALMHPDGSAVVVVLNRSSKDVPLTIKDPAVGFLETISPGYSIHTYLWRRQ
Procedure: Enhancement of β-Glucocerebrosidase Activity Measured in Gaucher Disease Fibroblasts Materials
Human fibroblasts from a patient with Gaucher disease homozygous for p.L444P mutation (GM08760A) were purchased from Coriell Institute for Medical Research (Camden, N.J., USA).
(§1) Fibroblasts were seeded at 5×10^3 cells per well in 96-well cell culture plates (Corning, N.Y., USA) in Dulbecco's Modified Eagle's Media (DMEM) supplemented with 10% of fetal bovine serum (FBS), 1% penicillin/streptomycin (P/S) (Thermo Fisher Scientific, Waltham, Mass., USA) and grown at 37° C., 5% CO2 overnight for cell attachment. Subsequently, cells were incubated in the absence or presence of the compounds at the desired concentration for 4 days. After incubation, cells were washed twice with phosphate-buffered saline (PBS) and enzyme activity assay was performed.
(§2) β-glucocerebrosidase activity in intact cultured cells was measured by using 4-methylumbelliferyl-β-D-glucopyranoside substrate (Apollo Scientific, UK). Briefly, cells were incubated with 4-MU-β-D-glucopyranoside in 0.1 M acetate buffer pH=4 at 37° C. for 1 hour. […] The liberated 4-MU was measured on a GloMax Discover plate reader (Promega, Madison, Wis., USA) with and excitation at 340 nm and emission at 460 nm. Enzyme activities were expressed in treated cells as X-fold increase in comparison with non-treated cells (X=1 represents no enhancement).
The capacity of the compounds of the disclosure to produce an increase in enzyme activity in GBA fibroblasts bearing L444P at concentrations between 6 and 50 μM is denoted as follows:
(§3) The following compounds listed in Table 2 were purchased (from Enamine, Princeton, Asinex, Vistas-M, and OSSK_541352) and tested in the assay as described above.

[2] = target: T2, β-glucocerebrosidase Wild Type (WT) (Homo sapiens, UniProt P04062); assay: β-glucocerebrosidase activity enhancement, Wild Type (WT); assay type: cell-based; conditions: increase in enzyme activity vs non-treated cells
T2 construct: endogenous in cells
T2 sequence (P04062 40-536): T1 sequence (P04062 40-536 L483P) with P444L
Procedure: as §1, §2, §3

Row | Structure (SMILES) | Activity L444P [1] | Activity Wild Type (WT) [2]
1 | COc1ccccc1Nc1nc(N)nc(CN(C)Cc2ccccc2)n1 [Example 10, 6-((Benzyl (methyl)amino)methyl)-N^2-(2-methoxyphenyl)-1,3,5-triazine-2,4-diamine] | C (Increase in comparison with non-treated of 1.2-1.7 fold is shown as C) | B (Increase in comparison with non-treated of >1.7-2.0 fold is shown as B)
2 | CN(Cc1ccccc1)Cc1nc(N)nc(Nc2cccc(C#N)c2)n1 [Example 12, 3-(4-Amino-6-((benzyl(methyl)amino)methyl)-1,3,5-triazin-2-ylamino)benzonitrile] | C (Increase in comparison with non-treated of 1.2-1.7 fold is shown as C) | B (Increase in comparison with non-treated of >1.7-2.0 fold is shown as B)
3 | Cc1ccc(Nc2cc(CN(C)c3ccccc3)nc(N)n2)cc1 [Example 13, 6-((Methyl(phenyl)amino)methyl)-N^4-(p-tolyl)pyrimidine-2,4-diamine] | B (Increase in comparison with non-treated of >1.7-2.0 fold is shown as B) | B (Increase in comparison with non-treated of >1.7-2.0 fold is shown as B)
4 | Cc1ccc(Nc2cc(CN3CCCc4ccccc43)nc(N)n2)cc1 [Example 14, 6-((3,4-Dihydroquinolin-1(2H)-yl)methyl)-N^4-(p-tolyl)pyrimidine-2,4-diamine] | C (Increase in comparison with non-treated of 1.2-1.7 fold is shown as C) | B (Increase in comparison with non-treated of >1.7-2.0 fold is shown as B)
5 | Cc1cccc(Nc2cc(CN(C)Cc3ccccc3)nc(N)n2)c1 [Example 16] | B (Increase in comparison with non-treated of >1.7-2.0 fold is shown as B) | A (Increase in comparison with non-treated of >2.0 fold is shown as A)
6 | COc1ccc(Nc2cc(CN(C)Cc3ccccc3)nc(N)n2)cc1 [Example 18, 6-((benzyl(methyl)amino)methyl)-N^4-(4-methoxyphenyl)pyrimidine-2,4-diamine] | B (Increase in comparison with non-treated of >1.7-2.0 fold is shown as B) | B (Increase in comparison with non-treated of >1.7-2.0 fold is shown as B)
7 | CN(Cc1ccccc1)Cc1cc(Nc2ccc(C#N)cc2)nc(N)n1 [Example 19, 4-(2-amino-6-((benzyl(methyl)amino)methyl)pyrimidin-4-ylamino)benzonitrile] | B (Increase in comparison with non-treated of >1.7-2.0 fold is shown as B) | B (Increase in comparison with non-treated of >1.7-2.0 fold is shown as B)
8 | CN(Cc1ccccc1)Cc1cc(Nc2cccc(Cl)c2)nc(N)n1 [Example 20] | B (Increase in comparison with non-treated of >1.7-2.0 fold is shown as B) | B (Increase in comparison with non-treated of >1.7-2.0 fold is shown as B)
9 | CN(Cc1ccccc1)Cc1nc(N)nc(Nc2cccnc2)n1 [Example 26, 6-((Benzyl(methyl)amino)methyl)-N^2-(pyridin-3-yl)-1,3,5-triazine-2,4-diamine] | C (Increase in comparison with non-treated of 1.2-1.7 fold is shown as C) | B (Increase in comparison with non-treated of >1.7-2.0 fold is shown as B)
10 | Cc1ccccc1Nc1cc(CN(C)Cc2ccccc2)nc(N)n1 [Example 28, 6-((Benzyl(methyl)amino)methyl)-N^4-o-tolylpyrimidine-2,4-diamine] | B (Increase in comparison with non-treated of >1.7-2.0 fold is shown as B) | B (Increase in comparison with non-treated of >1.7-2.0 fold is shown as B)
11 | CN(Cc1ccccc1)Cc1cc(Nc2ccc3ccncc3c2)nc(N)n1 [Example 30, 6-((Benzyl(methyl)amino)methyl)-N^4-(isoquinolin-7-yl)pyrimidine-2,4-diamine] | A (Increase in comparison with non-treated of >2.0 fold is shown as A) | B (Increase in comparison with non-treated of >1.7-2.0 fold is shown as B)
12 | COc1ccc(CN(C)Cc2cc(Nc3ccc(C)cc3)nc(N)n2)cc1 [Example 33, 6-(((4-Methoxybenzyl)(methyl)amino)methyl)-N^4-p-tolylpyrimidine-2,4-diamine] | B (Increase in comparison with non-treated of >1.7-2.0 fold is shown as B) | B (Increase in comparison with non-treated of >1.7-2.0 fold is shown as B)
13 | COc1cccc(Nc2cc(CN(C)Cc3cccc(C#N)c3)nc(N)n2)c1 [Example 37, 3-((((2-Amino-6-(3-methoxyphenylamino)pyrimidin-4-yl)methyl)(methyl)amino)methyl) benzonitrile] | C (Increase in comparison with non-treated of 1.2-1.7 fold is shown as C) | B (Increase in comparison with non-treated of >1.7-2.0 fold is shown as B)
14 | COc1ccc(OC)c(Nc2cc(CN(C)Cc3ccccc3)nc(N)n2)c1 [Example 41, 6-((Benzyl(methyl)amino)methyl)-N^4-(2,5-dimethoxyphenyl)pyrimidine-2,4-diamine] | B (Increase in comparison with non-treated of >1.7-2.0 fold is shown as B) | C (Increase in comparison with non-treated of 1.2-1.7 fold is shown as C)
15 | COc1cccc(Nc2cc(CN(C)Cc3ccccc3)nc(N)n2)c1OC [Example 42, 6-((Benzyl(methyl)amino)methyl)-N^4-(2,3-dimethoxyphenyl)pyrimidine-2,4-diamine] | C (Increase in comparison with non-treated of 1.2-1.7 fold is shown as C) | B (Increase in comparison with non-treated of >1.7-2.0 fold is shown as B)
16 | CN(Cc1ccccc1)Cc1cc(Nc2cccc3c2OCO3)nc(N)n1 [Example 43, N^4-(Benzo[d][1,3]dioxol-4-yl)-6-((benzyl(methyl)amino)methyl)pyrimidine-2,4-diamine] | C (Increase in comparison with non-treated of 1.2-1.7 fold is shown as C) | C (Increase in comparison with non-treated of 1.2-1.7 fold is shown as C)
17 | COc1cccc(Nc2cc(CN(C)Cc3ccc(F)cc3)nc(N)n2)c1 [Example 45, 6-(((4-Fluorobenzyl)(methyl)amino)methyl)-N^4-(3-methoxyphenyl)pyrimidine-2,4-diamine] | C (Increase in comparison with non-treated of 1.2-1.7 fold is shown as C) | C (Increase in comparison with non-treated of 1.2-1.7 fold is shown as C)
18 | COc1ccc(C)cc1Nc1cc(CN(C)Cc2ccccc2)nc(N)n1 [Example 46, 6-((Benzyl(methyl)amino)methyl)-N^4-(2-methoxy-5-methylphenyl)pyrimidine-2,4-diamine] | B (Increase in comparison with non-treated of >1.7-2.0 fold is shown as B) | B (Increase in comparison with non-treated of >1.7-2.0 fold is shown as B)
19 | COc1ccc(CN(C)Cc2cc(Nc3cccc(C)c3)nc(N)n2)cc1 [Example 47, 6-(((4-Methoxybenzyl)(methyl)amino)methyl)-N^4-m-tolylpyrimidine-2,4-diamine] | C (Increase in comparison with non-treated of 1.2-1.7 fold is shown as C) | C (Increase in comparison with non-treated of 1.2-1.7 fold is shown as C)
